Holding throughout (type): cell-based
The test system of experiment [1] is Escherichia coli (ATCC 8739). Kind of experiment: MIC determination (antibacterial susceptibility test, CLSI / Hungarian Pharmacopeia). The settings on record: for MIC: Escherichia coli, ATCC8739, tested range 6.25–100 µg/mL; for MIC Escherichia coli (ATCC 8739): tested range 6.25–100 µg/mL. On the procedure: (§1) The antimicrobial activity of twenty-two cationic hexopyranoside-amidinium salts (3, 10, 11, 12, 21, 22, 23, 24, 29, 30, 32, 37, 38, 45, 46, 47, 48, 49, 50, 51, 52 and 53) were compared in susceptibility tests (Table 2). The effectiveness of all compounds was tested on Staphylococcus aureus ssp. aureus (ATCC 6538), Escherichia coli (ATCC 8739) and Candida albicans (ATCC 10231). We tested the antimicrobial activity of the compounds at the concentration range of 6.25–100 µg/mL.
(§2) The detection of the antibacterial and antifungal effects of the tested compounds and the determination of the minimum inhibitory concentration (MIC) were carried out based on the method of CLSI [48] and Hungarian Pharmacopeia (chapters VIII. 2.6.12–13.).
(§3) For the antimicrobial studies, we used three human pathogens as test organisms: Candida albicans (ATCC 10231), Staphylococcus aureus subspecies aureus (ATCC 6538) and Escherichia coli (ATCC 8739).
(§4) Staphylococcus aureus subspecies aureus and Escherichia coli were cultured on tryptic soya agar (TSA) for 18–24 h at 37 °C. Candida albicans was cultured on Sabouraud dextrose agar (SDA) for 18–24 h at 37 °C. To obtain cells for suspension, we made cell suspensions from Staph. aureus, E. coli and C. albicans with the cotton swab suspension technique. The dilution of suspension was then made with 0.85% NaCl solution, absorbance being set to A600nm = 0.06. a volume of 10 μL of these suspensions contained ~4.5–6.0 × 10^4 colony forming unit (CFU) (bacteria) and ~1.5–2.0 × 10^3 CFU for yeast.
(§5) Tested agents were diluted with DMSO; the concentration of stock solutions was 4 mg/mL; and to ensure sterility, the closed sample containers were incubated at 35 °C for 1 h. The highest final concentration was 100 μg/mL.
(§6) Testing was performed in 24-well plates, and cell suspensions were prepared with 0.85% NaCl solution. Stock solutions were made from the agents with DMSO (100%). Final concentrations of used compounds were 6.25–100 µg/mL. […] After inoculation, plates were incubated at 35 °C, and results were then read visually after 18–24 h. If microbial growth could not be detected, results were read visually after 72 h. If there was no growth after 72 h, incubation was continued till the fifth day of the experiment and the results were read visually and with plate reader at 600 nm after 120 h.
(§7) The MIC value of a compound was defined as the minimal concentration that inhibits the growth of bacteria and yeasts comparing to the control. The results of the antibacterial and antifungal tests were read visually after 24, 48, 72 and 120 h. The microbial growth was measured by plate reader at 600 nm after 120 h.

For experiment [2], the system named is Staphylococcus aureus ssp. aureus (ATCC 6538). The description is as above. The settings on record: for MIC: Staphylococcus aureus, ATCC6538, tested range 6.25–100 µg/mL; for MIC Staphylococcus aureus (ATCC 6538): tested range 6.25–100 µg/mL. On the procedure: as §1, §2, §3, §4, §5, §6, §7
The subject of experiment [3] is Candida albicans (ATCC 10231). Kind of experiment: MIC determination (antifungal susceptibility test). To be noted: Candida albicans, ATCC10231, tested range 6.25–100 µg/mL; read-out: MIC Candida albicans (ATCC 10231). Here is the method: as §1, §2, §3, §4, §5
Testing was performed in 24-well plates, and cell suspensions were prepared with 0.85% NaCl solution. Stock solutions were made from the agents with DMSO (100%). […] […] After inoculation, plates were incubated at 35 °C, and results were then read visually after 18–24 h. If microbial growth could not be detected, results were read visually after 72 h. If there was no growth after 72 h, incubation was continued till the fifth day of the experiment and the results were read visually and with plate reader at 600 nm after 120 h.
as §7

Bounds are passed on as bounds.

A word on the MIC: it is the least concentration at which growth counts as inhibited.

As for `CCS[C@H]1O[C@H](C[N+]2=C3CCCCCN3CCC2)[C@@H](OCc2ccc3ccccc3c2)[C@H](OC(=O)c2ccccc2)[C@H]1OC(=O)c1ccccc1` [Compound 11], in experiment [1], the minimum inhibitory concentration (MIC) is over 100 µg/mL and the “MIC Escherichia coli (ATCC 8739)” value is given as over 100 µg/mL. For the same molecule, in experiment [2], the MIC is over 100 µg/mL and the “MIC Staphylococcus aureus (ATCC 6538)” value was over 100 µg/mL. The minimal inhibitory concentration (MIC) in experiment [3] was over 100 µg/mL.
`O=C(O[C@@H]1[C@H](OC(=O)c2ccccc2)[C@@H](Sc2ccccc2)O[C@H](C[N+]2=C3CCCCCN3CCC2)[C@H]1OCc1ccc2ccccc2c1)c1ccccc1` [Compound 23]: the MIC in experiment [1], in experiment [2] and in experiment [3] was over 100 µg/mL throughout.
Turning to `O=C(O[C@H]1[C@@H](OCc2ccccc2)[C@H](OCc2ccc3ccccc3c2)[C@@H](C[N+]2=C3CCCCCN3CCC2)O[C@@H]1Sc1ccccc1)c1ccccc1` [Compound 24], the MIC in experiment [1] is at least 100 µg/mL; in experiment [2], 6.25 to 50 µg/mL.
Turning to `CCS[C@H]1O[C@H](C[N+]2=C3CCCCCN3CCC2)[C@@H](OCc2ccc3ccccc3c2)[C@@H](OC(=O)c2ccccc2)[C@H]1OC(=O)c1ccccc1` [Compound 30], in experiment [1], the MIC is at least 100 µg/mL.
Regarding `CCS[C@H]1O[C@H](C[N+]23CCN(CC2)CC3)[C@@H](OCc2ccc3ccccc3c2)[C@@H](OC(=O)c2ccccc2)[C@H]1OC(=O)c1ccccc1` [Compound 32], the MIC is at least 100 µg/mL in experiment [1], 6.25 to 50 µg/mL in experiment [2] and over 100 µg/mL in experiment [3].
As to `c1ccc(CO[C@H]2[C@H](OCc3ccccc3)[C@@H](Sc3ccccc3)O[C@H](C[N+]3=C4CCCCCN4CCC3)[C@H]2OCc2ccc3ccccc3c2)cc1` [Compound 37], the minimum inhibitory concentration (MIC) in experiment [1] and in experiment [3] was over 100 µg/mL throughout.
Regarding `O=C(O[C@H]1[C@H](OC(=O)c2ccccc2)[C@@H](Sc2ccccc2)O[C@H](C[N+]2=C3CCCCCN3CCC2)[C@H]1OCc1ccc2ccccc2c1)c1ccccc1` [Compound 38], in experiment [1], the MIC was over 100 µg/mL and the “MIC Escherichia coli (ATCC 8739)” value is over 100 µg/mL. Further, in experiment [2], the minimal inhibitory concentration (MIC) was over 100 µg/mL and the “MIC Staphylococcus aureus (ATCC 6538)” value is listed as over 100 µg/mL. Moreover, the MIC in experiment [3] was over 100 µg/mL.
Take `CO[C@H]1O[C@H](C[N+]2=C3CCCCCN3CCC2)[C@@H](OCc2ccccc2)[C@H](O)[C@H]1O` [Compound 45, 8-N-[methyl 6-deoxy-6-yl-4-O-benzyl-α-D-glucopyranoside]-1,8-diazabicyclo(5.4.0)undec-7-ene-chloride]: the MIC in experiment [1], in experiment [2] and in experiment [3] was over 100 µg/mL throughout. Besides, in experiment [1], the “MIC Escherichia coli (ATCC 8739)” value is over 100 µg/mL. Besides, in experiment [2], the “MIC Staphylococcus aureus (ATCC 6538)” value is reported as over 100 µg/mL.
Consider `CCS[C@H]1O[C@H](C[N+]2=C3CCCCCN3CCC2)[C@@H](OCc2ccc3ccccc3c2)[C@H](O)[C@H]1O` [Compound 46, 8-N-[ethyl 6-deoxy-6-yl-4-O-(2′-naphthyl)methyl-1-thio-α-D-glucopyranoside]-1,8-diazabicyclo(5.4.0)undec-7-ene-chloride], for which the minimal inhibitory concentration (MIC) in experiment [1], in experiment [2] and in experiment [3] was over 100 µg/mL each time. Further, the “MIC Escherichia coli (ATCC 8739)” value in experiment [1] was over 100 µg/mL. The “MIC Staphylococcus aureus (ATCC 6538)” value in experiment [2] is over 100 µg/mL.
Consider `CCS[C@H]1O[C@H](C[N+]2=C3CCCCCN3CCC2)[C@@H](O)[C@H](O)[C@H]1O` [Compound 47, 8-N-[ethyl 6-deoxy-6-yl-1-thio-α-D-glucopyranoside]-1,8-diazabicyclo(5.4.0)undec-7-ene-chloride], for which, in experiment [1], the minimal inhibitory concentration (MIC) is over 100 µg/mL and the “MIC Escherichia coli (ATCC 8739)” value is over 100 µg/mL. In experiment [2], the minimum inhibitory concentration (MIC) was over 100 µg/mL and the “MIC Staphylococcus aureus (ATCC 6538)” value is listed as over 100 µg/mL. Besides, the minimal inhibitory concentration (MIC) in experiment [3] is over 100 µg/mL.
In turn, `CCS[C@H]1O[C@H](C[N+]2=C3CCCCCN3CCC2)[C@@H](O)[C@H](OCc2ccccc2)[C@H]1OCc1ccccc1` [Compound 48, 8-N-[ethyl 2,3-di-O-benzyl-6-deoxy-6-yl-1-thio-α-D-glucopyranoside]-1,8-diazabicyclo(5.4.0)undec-7-ene-chloride] had an MIC in experiment [1] of over 100 µg/mL.
In the case of `O[C@@H]1[C@H](OCc2ccccc2)[C@@H](Sc2ccccc2)O[C@H](C[N+]2=C3CCCCCN3CCC2)[C@H]1OCc1ccccc1` [Compound 49, 8-N-[phenyl 2,4-di-O-benzyl-6-deoxy-6-yl-1-thio-α-D-mannopyranoside]-1,8-diazabicyclo(5.4.0)undec-7-ene-chloride], the MIC in experiment [1], in experiment [2] and in experiment [3] was over 100 µg/mL each time. The “MIC Escherichia coli (ATCC 8739)” value in experiment [1] is on record as over 100 µg/mL. Also, in experiment [2], the “MIC Staphylococcus aureus (ATCC 6538)” value is listed as over 100 µg/mL.
In the case of `O[C@H]1[C@H](OCc2ccccc2)[C@H](OCc2ccccc2)[C@@H](Sc2ccccc2)O[C@@H]1C[N+]1=C2CCCCCN2CCC1` [Compound 50, 8-N-[phenyl 2,3-di-O-benzyl-6-deoxy-6-yl-1-thio-α-D-mannopyranoside]-1,8-diazabicyclo(5.4.0)undec-7-ene-chloride], the MIC in experiment [1] was over 100 µg/mL.
For `O[C@@H]1[C@H](O)[C@@H](Sc2ccccc2)O[C@H](C[N+]2=C3CCCCCN3CCC2)[C@H]1OCc1ccc2ccccc2c1` [Compound 51, 8-N-[phenyl 6-deoxy-6-yl-4-O-(2′-naphthyl)methyl-1-thio-α-D-mannopyranoside]-1,8-diazabicyclo(5.4.0)undec-7-ene-chloride], the MIC in experiment [1] was over 100 µg/mL; in experiment [2], 6.25 to 50 µg/mL.
As for `O=C(O[C@H]1[C@@H](OCc2ccccc2)[C@H](O)[C@@H](C[N+]2=C3CCCCCN3CCC2)O[C@@H]1Sc1ccccc1)c1ccccc1` [Compound 52, 8-N-[phenyl 2-O-benzoyl-3-O-benzyl-6-deoxy-6-yl-1-thio-α-D-mannopyranoside]-1,8-diazabicyclo(5.4.0)undec-7-ene-chloride], the minimal inhibitory concentration (MIC) in experiment [1], in experiment [2] and in experiment [3] was over 100 µg/mL each time.
`O[C@H]1[C@@H](OCc2ccccc2)[C@H](OCc2ccc3ccccc3c2)[C@@H](C[N+]2=C3CCCCCN3CCC2)O[C@@H]1Sc1ccccc1` [Compound 53, 8-N-[phenyl 3-O-benzyl-6-deoxy-6-yl-4-O-(2′-naphthyl)methyl-1-thio-α-D-mannopyranoside]-1,8-diazabicyclo(5.4.0)undec-7-ene-acetate]: the MIC in experiment [1] was over 100 µg/mL; in experiment [2] it was 6.25 to 50 µg/mL; in experiment [3] it was 6.25 to 50 µg/mL.

These data come from publication PMC9968064, “First Synthesis of DBU-Conjugated Cationic Carbohydrate Derivatives and Investigation of Their Antibacterial and Antifungal Activity” (International Journal of Molecular Sciences, 2023).
